Where two headings read alike, the source gives them in different places.
Columns and labels:
[1] = test system: HUVEC cells; experiment: MTT cell viability assay in normal cells; assay type: cell-based, human; conditions: 24 h
Experimental: Then, cell viability was measured by the mitochondrial MTT reduction activity assay.

[2] = target: T1, HDAC7 (Homo sapiens, UniProt Q8WUI4); experiment: Fluorometric HDAC activity assay, recombinant isoform
T1 sequence (Q8WUI4 1-952): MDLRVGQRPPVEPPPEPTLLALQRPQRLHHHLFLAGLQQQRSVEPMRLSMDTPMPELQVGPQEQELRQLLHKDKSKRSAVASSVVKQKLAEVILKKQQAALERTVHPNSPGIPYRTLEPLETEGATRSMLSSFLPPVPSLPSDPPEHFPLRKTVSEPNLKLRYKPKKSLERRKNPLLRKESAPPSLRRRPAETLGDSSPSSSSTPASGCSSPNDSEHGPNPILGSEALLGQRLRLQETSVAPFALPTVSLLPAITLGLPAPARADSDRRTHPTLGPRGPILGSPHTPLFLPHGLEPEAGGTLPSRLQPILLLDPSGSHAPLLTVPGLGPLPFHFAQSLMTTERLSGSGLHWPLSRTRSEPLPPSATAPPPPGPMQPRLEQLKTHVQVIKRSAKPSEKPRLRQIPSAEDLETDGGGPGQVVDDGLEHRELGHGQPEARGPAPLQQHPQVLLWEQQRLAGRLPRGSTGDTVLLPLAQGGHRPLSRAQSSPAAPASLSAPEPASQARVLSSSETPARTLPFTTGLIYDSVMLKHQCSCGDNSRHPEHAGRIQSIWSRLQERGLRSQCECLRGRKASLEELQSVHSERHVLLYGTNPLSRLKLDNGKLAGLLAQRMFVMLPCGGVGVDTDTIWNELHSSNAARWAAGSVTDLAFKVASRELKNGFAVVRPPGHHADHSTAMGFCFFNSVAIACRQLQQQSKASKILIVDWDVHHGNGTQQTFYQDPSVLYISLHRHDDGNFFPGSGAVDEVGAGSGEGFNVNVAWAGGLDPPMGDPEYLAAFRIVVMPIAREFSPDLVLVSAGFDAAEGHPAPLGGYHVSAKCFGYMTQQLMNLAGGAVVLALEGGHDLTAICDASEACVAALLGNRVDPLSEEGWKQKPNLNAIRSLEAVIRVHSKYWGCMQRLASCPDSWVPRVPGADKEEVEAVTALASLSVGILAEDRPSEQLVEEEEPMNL
Experimental: (§2) Two different types of in vitro HDAC activity assays were used (with or without cells). Test compounds were incubated with individual recombinant HDAC isoforms (HDAC 1-9) and the assay was performed according to the manufacturer's protocol (BPS Biosciences, USA).

[3] = target: HDAC2 (Homo sapiens, UniProt Q92769); experiment: as above
HDAC2, sequence (Q92769 whole entry): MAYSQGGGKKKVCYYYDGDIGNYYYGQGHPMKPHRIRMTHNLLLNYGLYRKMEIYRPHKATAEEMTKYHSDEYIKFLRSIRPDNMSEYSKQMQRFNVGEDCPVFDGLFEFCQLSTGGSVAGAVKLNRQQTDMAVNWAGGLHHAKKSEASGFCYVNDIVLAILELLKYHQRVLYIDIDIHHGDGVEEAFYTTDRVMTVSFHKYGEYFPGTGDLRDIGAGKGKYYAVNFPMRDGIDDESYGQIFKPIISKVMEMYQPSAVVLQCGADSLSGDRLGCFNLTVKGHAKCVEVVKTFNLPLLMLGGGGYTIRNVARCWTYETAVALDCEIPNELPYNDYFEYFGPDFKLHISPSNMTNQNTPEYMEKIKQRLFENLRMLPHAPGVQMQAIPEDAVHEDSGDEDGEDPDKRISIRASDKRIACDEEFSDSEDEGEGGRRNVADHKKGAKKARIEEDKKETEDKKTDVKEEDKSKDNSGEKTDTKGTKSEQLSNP
Experimental: as §2

[4] = target: HDAC9 (Homo sapiens, UniProt Q9UKV0); experiment: as above
HDAC9, sequence (Q9UKV0 whole entry): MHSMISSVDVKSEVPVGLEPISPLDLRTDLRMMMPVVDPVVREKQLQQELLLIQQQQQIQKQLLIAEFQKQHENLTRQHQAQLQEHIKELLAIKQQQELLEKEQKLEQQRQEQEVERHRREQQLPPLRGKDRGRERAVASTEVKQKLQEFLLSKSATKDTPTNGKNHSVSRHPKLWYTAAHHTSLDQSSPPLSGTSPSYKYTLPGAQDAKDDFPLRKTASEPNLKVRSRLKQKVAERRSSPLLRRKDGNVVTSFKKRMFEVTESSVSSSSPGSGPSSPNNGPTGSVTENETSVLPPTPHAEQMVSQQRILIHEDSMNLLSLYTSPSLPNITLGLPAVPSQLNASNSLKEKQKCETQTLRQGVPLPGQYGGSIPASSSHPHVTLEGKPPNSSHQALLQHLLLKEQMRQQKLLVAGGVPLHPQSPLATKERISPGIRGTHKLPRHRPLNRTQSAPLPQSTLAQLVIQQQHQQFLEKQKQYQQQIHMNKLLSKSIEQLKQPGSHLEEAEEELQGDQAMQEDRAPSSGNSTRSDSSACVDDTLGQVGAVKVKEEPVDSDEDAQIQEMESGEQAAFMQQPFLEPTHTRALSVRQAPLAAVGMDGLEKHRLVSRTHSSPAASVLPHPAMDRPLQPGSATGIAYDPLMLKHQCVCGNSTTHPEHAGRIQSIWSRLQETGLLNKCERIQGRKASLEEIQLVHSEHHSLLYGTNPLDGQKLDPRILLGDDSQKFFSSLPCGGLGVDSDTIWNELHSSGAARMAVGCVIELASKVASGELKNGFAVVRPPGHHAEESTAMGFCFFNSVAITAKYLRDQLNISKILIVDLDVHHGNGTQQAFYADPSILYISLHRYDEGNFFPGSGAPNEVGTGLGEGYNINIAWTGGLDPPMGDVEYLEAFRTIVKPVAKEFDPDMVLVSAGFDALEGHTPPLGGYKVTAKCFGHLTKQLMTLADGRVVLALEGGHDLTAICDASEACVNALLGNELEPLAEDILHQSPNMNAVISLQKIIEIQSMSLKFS
Experimental: as §2

[5] = test system: HT-29 tumor xenograft; experiment: HT-29 tumor xenograft model; assay type: in vivo, athymic nude mice; conditions: 100 or 200 mg/kg qd by gavage, 18 days
Experimental: Tumor volumes were calculated using caliper measurements twice per week using the formula volume (mm^3) = (length × width^2)/2. Body weights were measured daily during the first week and twice per week thereafter. […] The protocols of the in vivo study were approved by the Animal Care and User Committee at National Taiwan University.

[6] = target: HDAC1 (Homo sapiens, UniProt Q13547); experiment: Fluorometric HDAC activity assay, recombinant isoform
HDAC1, sequence (Q13547 whole entry, canonical isoform): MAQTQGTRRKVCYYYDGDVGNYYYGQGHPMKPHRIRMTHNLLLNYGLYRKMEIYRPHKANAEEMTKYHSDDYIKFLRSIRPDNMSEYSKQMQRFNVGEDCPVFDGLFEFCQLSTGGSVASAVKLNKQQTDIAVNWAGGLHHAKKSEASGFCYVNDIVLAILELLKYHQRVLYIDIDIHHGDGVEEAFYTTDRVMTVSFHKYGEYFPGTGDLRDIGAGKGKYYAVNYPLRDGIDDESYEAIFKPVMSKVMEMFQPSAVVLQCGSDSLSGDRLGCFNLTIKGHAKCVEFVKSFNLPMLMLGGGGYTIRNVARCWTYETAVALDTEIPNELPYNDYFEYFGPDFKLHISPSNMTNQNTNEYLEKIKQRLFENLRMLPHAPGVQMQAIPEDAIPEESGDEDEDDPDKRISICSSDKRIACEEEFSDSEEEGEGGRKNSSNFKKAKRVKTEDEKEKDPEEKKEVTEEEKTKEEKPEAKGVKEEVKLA
Experimental: as §2

[7] = target: T2, HDAC8 (Homo sapiens, UniProt Q9BY41); experiment: as above
T2 sequence (Q9BY41 1-377): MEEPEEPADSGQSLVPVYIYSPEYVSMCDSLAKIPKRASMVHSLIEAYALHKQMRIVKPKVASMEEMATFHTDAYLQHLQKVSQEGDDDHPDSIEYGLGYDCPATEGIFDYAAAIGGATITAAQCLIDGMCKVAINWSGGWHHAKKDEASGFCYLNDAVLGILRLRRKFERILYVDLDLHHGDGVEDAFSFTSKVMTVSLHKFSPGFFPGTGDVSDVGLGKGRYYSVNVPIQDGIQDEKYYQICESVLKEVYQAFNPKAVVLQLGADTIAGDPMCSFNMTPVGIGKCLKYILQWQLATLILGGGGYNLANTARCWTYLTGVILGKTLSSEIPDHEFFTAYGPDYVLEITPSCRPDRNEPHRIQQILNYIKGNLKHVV
Experimental: as §2

[8] = test system: HCT116; experiment: Sulforhodamine B (SRB) growth inhibition assay; assay type: cell-based, human; conditions: HCT116, ± SE
Experimental: (§1) Cells were inoculated into 96-well plates in growth medium. After 24 h, cells were fixed with 10% trichloroacetic acid (TCA), to represent a measurement of the cell population at the time of drug addition (Tz). After incubation with vehicle (0.1% DMSO) or different concentrations of compound for 48 h (Tt), cells were fixed with 10% TCA and stained with 0.4% SRB. After staining, unbound SRB was removed by 1% acetic acid. Bound SRB was solubilized with 10 mM trizma base and the absorbance was measured at 515 nm. Percentage of growth inhibition was calculated as: 100−[(Tt-Tz)/(C-Tz)] ×100. Tt represents absorbance of compound-treated group, and C means absorbance of vehicle-treated group.

[9] = test system: A549; experiment: Sulforhodamine B (SRB) growth inhibition assay; assay type: cell-based, human; conditions: A549, ± SE
Experimental: as §1

[10] = test system: HT-29 cells; experiment: Sulforhodamine B (SRB) growth inhibition assay; assay type: cell-based, human
Experimental: as §1

[11] = test system: Hep3B; experiment: Sulforhodamine B (SRB) growth inhibition assay; assay type: cell-based, human; conditions: ± SE
Experimental: as §1

[12] = test system: HT-29 cells; experiment: MTT cell viability assay; assay type: cell-based; conditions: Homo sapiens, 24 h, read-out: IC50 (cell death, MTT)
Experimental: Cells were seeded in 96-well plates in growth medium overnight. Cells were treated with vehicle (0.1% DMSO) or different concentrations of compound for 24 h, then incubated with MTT reagent at 37°C for 1 h. After incubation, the insoluble formazan produced in living cells. The formazan crystals were dissolved with DMSO and the absorbance was measured at 550 nm.

[13] = target: T3, HDAC6 (Homo sapiens, UniProt Q9UBN7); experiment: Fluorometric HDAC activity assay, recombinant isoform
T3 sequence (Q9UBN7 1-1215): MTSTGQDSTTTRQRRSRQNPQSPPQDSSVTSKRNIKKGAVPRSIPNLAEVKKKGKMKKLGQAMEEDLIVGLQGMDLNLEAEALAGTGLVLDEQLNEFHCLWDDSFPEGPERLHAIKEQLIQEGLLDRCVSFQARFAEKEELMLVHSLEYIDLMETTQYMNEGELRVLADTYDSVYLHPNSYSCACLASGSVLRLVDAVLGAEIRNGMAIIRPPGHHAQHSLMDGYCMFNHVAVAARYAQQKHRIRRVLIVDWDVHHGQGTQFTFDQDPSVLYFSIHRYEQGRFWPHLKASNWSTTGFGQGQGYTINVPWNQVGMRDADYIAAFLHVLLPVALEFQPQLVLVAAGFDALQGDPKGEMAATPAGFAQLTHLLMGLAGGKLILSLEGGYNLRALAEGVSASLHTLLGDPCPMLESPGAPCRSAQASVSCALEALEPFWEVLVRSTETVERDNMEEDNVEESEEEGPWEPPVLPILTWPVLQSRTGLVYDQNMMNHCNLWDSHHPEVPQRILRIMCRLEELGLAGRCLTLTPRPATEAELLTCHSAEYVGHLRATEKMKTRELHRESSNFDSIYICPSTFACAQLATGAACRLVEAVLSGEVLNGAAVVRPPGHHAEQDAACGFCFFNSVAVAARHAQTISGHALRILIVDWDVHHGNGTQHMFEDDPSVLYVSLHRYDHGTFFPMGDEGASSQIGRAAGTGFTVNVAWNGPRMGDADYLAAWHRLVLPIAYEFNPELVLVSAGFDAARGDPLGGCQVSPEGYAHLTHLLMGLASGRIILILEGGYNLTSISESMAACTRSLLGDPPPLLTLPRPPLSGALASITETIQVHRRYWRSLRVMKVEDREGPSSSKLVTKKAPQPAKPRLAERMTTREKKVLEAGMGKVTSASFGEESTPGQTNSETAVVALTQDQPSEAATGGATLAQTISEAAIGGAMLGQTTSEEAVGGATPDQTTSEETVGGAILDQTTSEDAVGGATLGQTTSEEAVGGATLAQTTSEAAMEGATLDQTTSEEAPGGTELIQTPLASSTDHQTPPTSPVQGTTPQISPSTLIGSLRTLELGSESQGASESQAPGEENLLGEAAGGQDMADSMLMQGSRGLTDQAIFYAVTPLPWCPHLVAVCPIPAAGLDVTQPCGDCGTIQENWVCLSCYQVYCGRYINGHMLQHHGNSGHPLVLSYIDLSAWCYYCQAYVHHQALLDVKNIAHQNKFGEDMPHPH
Experimental: as §2

[14] = test system: PC3; experiment: Sulforhodamine B (SRB) growth inhibition assay; assay type: cell-based; conditions: Homo sapiens, PC-3; PC3, ± SE
Experimental: as §1, with “Bound SRB was solubilized with 10 mM trizma base and the absorbance was measured at 515 nm.” left out

[15] = test system: HT-29 cells; experiment: Cell death detection ELISA (DNA fragmentation); assay type: cell-based, human; conditions: 24 h, compared with SAHA
Experimental: Cell Death Detection ELISA Kit (Roche Diagnostics, Switzerland) was used to analyze drug-induced apoptosis. […] Adherent cells were collected and the assay was performed according to the manufacturer's protocol.

[16] = target: HDAC4 (Homo sapiens, UniProt P56524); experiment: Fluorometric HDAC activity assay, recombinant isoform
HDAC4, sequence (P56524 whole entry, canonical isoform): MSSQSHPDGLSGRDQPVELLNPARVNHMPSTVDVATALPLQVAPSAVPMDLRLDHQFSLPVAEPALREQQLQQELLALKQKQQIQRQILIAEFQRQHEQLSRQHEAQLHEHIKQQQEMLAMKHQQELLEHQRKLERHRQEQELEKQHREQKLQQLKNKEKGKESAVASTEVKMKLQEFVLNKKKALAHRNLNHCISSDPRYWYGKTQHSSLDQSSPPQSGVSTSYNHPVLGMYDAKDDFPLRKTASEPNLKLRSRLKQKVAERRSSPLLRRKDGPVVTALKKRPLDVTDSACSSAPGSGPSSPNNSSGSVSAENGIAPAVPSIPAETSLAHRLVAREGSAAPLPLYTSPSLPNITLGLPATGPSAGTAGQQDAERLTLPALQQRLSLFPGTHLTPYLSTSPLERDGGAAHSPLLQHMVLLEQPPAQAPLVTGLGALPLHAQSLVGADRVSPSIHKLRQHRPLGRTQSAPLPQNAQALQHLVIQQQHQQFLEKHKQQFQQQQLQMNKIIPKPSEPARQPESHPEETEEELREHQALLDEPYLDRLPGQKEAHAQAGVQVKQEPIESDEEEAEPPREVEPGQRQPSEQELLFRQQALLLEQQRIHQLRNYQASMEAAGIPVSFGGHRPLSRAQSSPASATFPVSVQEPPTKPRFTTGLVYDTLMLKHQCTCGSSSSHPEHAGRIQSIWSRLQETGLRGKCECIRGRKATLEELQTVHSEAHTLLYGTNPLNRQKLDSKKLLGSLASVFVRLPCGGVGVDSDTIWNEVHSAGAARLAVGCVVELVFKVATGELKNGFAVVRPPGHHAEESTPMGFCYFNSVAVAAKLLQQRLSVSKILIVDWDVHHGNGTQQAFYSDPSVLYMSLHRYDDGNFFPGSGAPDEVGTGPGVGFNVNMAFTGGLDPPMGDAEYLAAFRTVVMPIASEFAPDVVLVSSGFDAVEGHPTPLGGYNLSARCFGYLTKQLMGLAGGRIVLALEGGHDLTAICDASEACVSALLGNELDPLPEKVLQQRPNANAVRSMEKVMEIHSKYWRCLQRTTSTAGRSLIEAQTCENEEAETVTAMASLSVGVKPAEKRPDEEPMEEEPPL
Experimental: as §2

[17] = test system: total HDACs in HT-29 cells; experiment: Fluorometric HDAC activity assay, total HDACs in cell lysates; conditions: read-out: IC50 inhibition of total HDACs, HT-29 cells treated 24 h
Experimental: as §2

[18] = target: HDAC5 (Homo sapiens, UniProt Q9UQL6); experiment: Fluorometric HDAC activity assay, recombinant isoform
HDAC5, sequence (Q9UQL6 whole entry, canonical isoform): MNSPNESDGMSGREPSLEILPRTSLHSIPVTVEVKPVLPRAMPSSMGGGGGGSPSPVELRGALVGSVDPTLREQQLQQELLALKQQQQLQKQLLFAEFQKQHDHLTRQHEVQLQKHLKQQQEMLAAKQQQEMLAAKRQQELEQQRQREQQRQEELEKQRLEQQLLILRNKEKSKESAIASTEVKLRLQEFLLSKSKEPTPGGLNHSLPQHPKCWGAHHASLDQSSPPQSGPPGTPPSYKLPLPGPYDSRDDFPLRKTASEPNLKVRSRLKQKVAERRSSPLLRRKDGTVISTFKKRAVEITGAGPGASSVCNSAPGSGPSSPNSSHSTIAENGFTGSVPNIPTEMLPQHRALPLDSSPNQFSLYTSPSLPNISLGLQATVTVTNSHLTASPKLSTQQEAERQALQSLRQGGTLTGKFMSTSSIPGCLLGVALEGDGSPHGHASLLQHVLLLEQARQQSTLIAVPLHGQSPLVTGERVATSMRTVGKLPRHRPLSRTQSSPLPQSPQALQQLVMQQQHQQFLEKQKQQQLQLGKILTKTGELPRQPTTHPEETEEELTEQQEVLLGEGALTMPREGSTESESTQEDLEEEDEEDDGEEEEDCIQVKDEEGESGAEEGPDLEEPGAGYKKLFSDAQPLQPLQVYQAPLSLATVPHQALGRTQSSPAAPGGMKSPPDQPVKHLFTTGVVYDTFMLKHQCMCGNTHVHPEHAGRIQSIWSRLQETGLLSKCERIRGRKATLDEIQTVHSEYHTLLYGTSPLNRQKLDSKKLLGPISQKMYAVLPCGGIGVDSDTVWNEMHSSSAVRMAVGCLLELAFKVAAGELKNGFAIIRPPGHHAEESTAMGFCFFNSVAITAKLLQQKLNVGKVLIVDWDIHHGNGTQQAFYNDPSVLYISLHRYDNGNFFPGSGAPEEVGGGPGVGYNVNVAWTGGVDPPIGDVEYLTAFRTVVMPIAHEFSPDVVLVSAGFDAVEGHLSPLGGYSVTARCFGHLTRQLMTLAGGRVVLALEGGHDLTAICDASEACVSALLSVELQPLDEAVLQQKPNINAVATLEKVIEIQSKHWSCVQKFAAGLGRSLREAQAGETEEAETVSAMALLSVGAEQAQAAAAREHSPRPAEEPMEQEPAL
Experimental: as §2

[19] = test system: HT-29 cells; set-up: method as in PMID 10200307; conditions: cited from earlier work

COc1ccc(S(=O)(=O)N2CCc3cc(C=CC(=O)NO)cc(N)c32)cc1 [MPT0G030, 3-[7-amino-1-(4-methoxy-benzenesulfonyl)-2,3-dihydro-1H-indol-5-yl]-N-hydroxy-acrylamide]
IC50 in normal (HUVEC) cells relative to IC50 in HT-29 cells [1]: about thirty times higher
IC50 [2]: > 10 µM
Ratio: fold x IC50 relative to HDAC1 isoform ([2]; HDAC7): >130
IC50 [3]: 0.242 ± 0.0476 µM
Ratio: fold x IC50 relative to HDAC1 isoform ([3]; HDAC2): 3.22
IC50 [4]: > 10 µM
Ratio: fold x IC50 relative to HDAC1 isoform ([4]; HDAC9): >130
Body weight [5]: not affected
IC50 [6]: 0.0751 ± 0.00465 µM
Ratio: fold x IC50 relative to HDAC1 isoform ([6]; HDAC1): 1
IC50 [7]: 3.34 ± 0.13 µM
Ratio: fold x IC50 relative to HDAC1 isoform ([7]; HDAC8): 44.55
GI50 ([8]; Homo sapiens, HCT-116): 0.11 ± 0.02 µM
GI50 ([9]; Homo sapiens): 0.18 ± 0.01 µM
GI50 ([10]; Homo sapiens, HT-29, 48 h): 0.145 ± 0.01 µM
GI50 ([11]; Homo sapiens): 0.14 ± 0.01 µM
IC50 [12]: 0.985 ± 0.06 µM
IC50 [13]: 4.368 ± 0.0421 µM
HDAC6 IC50 of MPT0G030 as fold x IC50 of SAHA ([13]; HDAC6): > 55 fold
Ratio: fold x IC50 relative to HDAC1 isoform ([13]; HDAC6): 58.19
GI50 [14]: 0.17 ± 0.01 µM
Induction of cell apoptosis (cytoplasmic histone-associated DNA fragments) [15]: more effective on inducing cell apoptosis
IC50 [16]: > 10 µM
IC50 [17]: 6.45 ± 1.39 µM
IC50 [18]: > 5 µM
Ratio: fold x IC50 relative to HDAC1 isoform ([18]; HDAC5): >60

Nc1ccccc1NC(=O)c1ccc(CNC(=O)OCc2cccnc2)cc1 [entinostat]
GI50 [19]: 1.29 µM

O=C(CCCCCCC(=O)Nc1ccccc1)NO [SAHA, suberanilohydroxamic acid, reference compound]
GI50 [8]: 0.44 ± 0.03 µM
GI50 [9]: 2.62 ± 1.37 µM
GI50 ([10]; 48 h): 0.92 ± 0.05 µM
GI50 [11]: 0.95 ± 0.04 µM
IC50 [17]: 29.6 ± 2.62 µM

Source: PMC4170623, “A novel class I HDAC inhibitor, MPT0G030, induces cell apoptosis and differentiation in human colorectal cancer cells via HDAC1/PKCδ and E-cadherin” (Oncotarget, 2014)
